Measurements: patent publication US8501977B2, “Platinum complex and pharmaceutical composition containing the same” (Unitech Co., Ltd., priority 2008, dated 2013)
“Also recorded” adds a separate entry of the source.

Key:
[1] = system: MKN-1 (human gastric cancer cell); test: MTS cell proliferation test, MKN-1 (Embodiment 8); type: cell-based
Experimental: (§1) Respectively, the S medicine test solution was prepared by dissolving the ((S,S,S) cis,cis-spiro[4,4]nonane-1,6-diamine)oxalatoplatinum(II) complex (compound 2; hereinafter, it is described as S medicine) into the dimethylsulfoxide (DMSO) with the concentration of 10 mg/ml and the R medicine test solution was prepared by dissolving the ((R,R,R)cis,cis-spiro[4,4]nonane-1,6-diamine) oxalatoplatinum(II) complex (compound 3; hereinafter, it is described as R medicine) into the dimethylsulfoxide (DMSO) with the concentration of 10 mg/ml.
(§2) The test was performed by using A549 (human lung cancer cell), LU65A (human lung cancer cell), RERF-LC-MA (human lung cancer cell), LU99 (human lung cancer cell), H460 (human lung cancer cell), HCT116 (human colon cancer cell), HT-29 (human colon cancer cell), MKN-45 (human gastric cancer cell), MKN-1 (human gastric cancer cell), U937 (human lymphoma cell), KP-1N (human pancreas cancer cell) and B2452 (human mesotheliama cell) as the cancer cell.
(§3) These cells were suspended in the each culture medium that the serum of 10% was added, and were dispensed in 96-well plate. And then, these were cultured in 5% CO2 at 37 degrees centigrade during a night. Next day, the S medicine test solution and the R medicine test solution were prepared in the culture medium to the various concentrations (5, 10, 20 μg/ml), and were dispensed into the plates that the cells were set preliminarily. And further, these were cultured in 5% CO2 at 37 degrees centigrade for three days.
(§4) The cell proliferation after the medicine addition was measured on the 3rd day from the 1st day after the medicine addition by the MTS method (kit for cell proliferation test manufactured by Promega Company).
(§5) The inhibition rate (%) of the cell proliferation was obtained from the measured MTS value by the following formula. Inhibition rate(%)=(1-MTS value of medicine addition group/MTS value of medicine non-addition group)×100
(§6) Because the value which was obtained by the above-mentioned formula represents the inhibition rate of the cell proliferation, the higher the numerical value is, the higher the medicine effect is. It is desired that the one whose value is 50% or more has the medicine effect.

[2] = system: HT-29 (human colon cancer cell); test: MTS cell proliferation test, HT-29 (Embodiment 8); type: cell-based
Experimental: as §1, §2, §3, §4, §5, §6

[3] = system: HCT116 (human colon cancer cell); test: MTS cell proliferation test, HCT116 (Embodiment 8); type: cell-based
Experimental: as §1, §2, §3, §4, §5, §6

[4] = system: LU99 (human lung cancer cell); test: MTS cell proliferation test, LU99 (Embodiment 8); type: cell-based
Experimental: as §1, §2, §3, §4, §5, §6

[5] = system: LU65A (human lung cancer cell); test: MTS cell proliferation test, LU65A (Embodiment 8); type: cell-based
Experimental: as §1, §2, §3, §4, §5, §6

[6] = system: H2452 cell (human mesothelicana cell); test: MTS cell proliferation test, H2452 (Embodiment 8); type: cell-based
Experimental: as §1, §2, §3, §4, §5, §6

[7] = system: A549 (human lung cancer cell); test: MTS cell proliferation test, A549 (Embodiment 8); type: cell-based
Experimental: as §1, §2, §3, §4, §5, §6

[8] = system: U937 (human lymphoma cell); test: MTS cell proliferation test, U937 (Embodiment 8); type: cell-based
Experimental: as §1, §2, §3, §4, §5, §6

[9] = system: RERF-LC-MA (human lung cancer cell); test: MTS cell proliferation test, RERF-LC-MA (Embodiment 8); type: cell-based
Experimental: as §1, §2, §3, §4, §5, §6

[10] = system: MKN-45 (human gastric cancer cell); test: MTS cell proliferation test, MKN-45 (Embodiment 8); type: cell-based
Experimental: as §1, §2, §3, §4, §5, §6

[11] = system: KP-1N (human pancreas cancer cell); test: MTS cell proliferation test, KP-1N (Embodiment 8); type: cell-based
Experimental: as §1, §2, §3, §4, §5, §6

[12] = system: H460 (human lung cancer cell); test: MTS cell proliferation test, H460 (Embodiment 8); type: cell-based
Experimental: as §1, §2, §3, §4, §5, §6

[13] = system: U937 (human lymphoma cell); test: MTS cell proliferation test, U937 (Embodiment 7); type: cell-based
Experimental: The test solution was prepared by dissolving the (compound 1) into the dimethylsulfoxide ([…]) with the concentration of 8 mg/ml.
The test was performed by using the U937 (human lymphoma cell) as the cancer cell and using the HEK293 (human fetus kidney cell) as the normal cell.
These cells were suspended in the each culture medium that the serum of 10% was added, and were dispensed in 96-well plate. And then, these were cultured in 5% CO2 at 37 degrees centigrade during a night. Next day, the test solution was prepared in the culture medium to the various concentrations (0, 4, 8, 16 μg/ml), and was dispensed into the plate that the cells were set preliminarily. And further, these were cultured in 5% CO2 at 37 degrees centigrade for three days.
The cell proliferation after the medicine addition was measured on the 3rd day from the 1st day after the medicine addition by the […] (Kit for cell proliferation test manufactured by Promega Company).
as §5
Because the value which was obtained by the above-mentioned formula represents the inhibition rate of the cell proliferation, the higher the numerionl value is, the higher the medicine effect is. It is deemed that the one whose value is 50% or more has the medicine effect.

[14] = system: tumor cells; test: MTS cell proliferation test, all cancer cells of Embodiment 8; type: cell-based, human; conditions: summary of Table 2 in words
Experimental: as §1
as §2, with “cell. […]” for “cell.”
as §4
The inhibition rate (%) of the cell proliferation was obtained from the measured MTS value by the following formula. […]

Structure (SMILES)	Inhibition rate of cell proliferation after 3 days from medicine addition (%) ([1]; MKN-1, 10 μg/ml)	Inhibition rate of cell proliferation after 3 days from medicine addition (%) ([1]; MKN-1, 20 μg/ml)	Inhibition rate of cell proliferation after 3 days from medicine addition (%) ([2]; HT-29, 10 μg/ml)	Inhibition rate of cell proliferation after 3 days from medicine addition (%) ([2]; HT-29, 20 μg/ml)	Inhibition rate of cell proliferation after 3 days from medicine addition (%) ([3]; HCT116, 10 μg/ml)	Inhibition rate of cell proliferation after 3 days from medicine addition (%) ([3]; HCT116, 20 μg/ml)	Inhibition rate of cell proliferation after 3 days from medicine addition (%) ([4]; LU99, 10 μg/ml)	Inhibition rate of cell proliferation after 3 days from medicine addition (%) ([4]; LU99, 20 μg/ml)	Inhibition rate of cell proliferation after 3 days from medicine addition (%) ([5]; 10 μg/ml)	Inhibition rate of cell proliferation after 3 days from medicine addition (%) ([5]; 20 μg/ml)	Inhibition rate of cell proliferation after 3 days from medicine addition (%) ([6]; H2452, 10 μg/ml)	Inhibition rate of cell proliferation after 3 days from medicine addition (%) ([6]; H2452, 20 μg/ml)	Inhibition rate of cell proliferation after 3 days from medicine addition (%) ([7]; A549, 10 μg/ml)	Inhibition rate of cell proliferation after 3 days from medicine addition (%) ([7]; A549, 20 μg/ml)	Inhibition rate of cell proliferation after 3 days from medicine addition (%) ([8]; U937, 10 μg/ml)	Inhibition rate of cell proliferation after 3 days from medicine addition (%) ([8]; U937, 20 μg/ml)	Inhibition rate of cell proliferation after 3 days from medicine addition (%) ([9]; 10 μg/ml)	Inhibition rate of cell proliferation after 3 days from medicine addition (%) ([9]; 20 μg/ml)	Inhibition rate of cell proliferation after 3 days from medicine addition (%) ([10]; MKN-45, 10 μg/ml)	Inhibition rate of cell proliferation after 3 days from medicine addition (%) ([10]; MKN-45, 20 μg/ml)	further results
O=C1[O][Pt]2([NH][C@@H]3CCCC[C@H]3[NH]2)[O]C1=O [oxaliplatin, reference compound]	◯ (◯: 51~75%)	⊚ (⊚: 76~100%)	Δ (Δ: 26~50%)	Δ (Δ: 26~50%)	◯ (◯: 51~75%)	◯ (◯: 51~75%)	◯ (◯: 51~75%)	◯ (◯: 51~75%)	Δ (Δ: 26~50%)	◯ (◯: 51~75%)	Δ (Δ: 26~50%)	Δ (Δ: 26~50%)	X (X: 0~25%)	Δ (Δ: 26~50%)	⊚ (⊚: 76~100%)	⊚ (⊚: 76~100%)	X (X: 0~25%)	X (X: 0~25%)	⊚ (⊚: 76~100%)	⊚ (⊚: 76~100%)	Inhibition rate of cell proliferation after 3 days from medicine addition (%) ([11]; 10 μg/ml): Δ (Δ: 26~50%); Inhibition rate of cell proliferation after 3 days from medicine addition (%) ([11]; 20 μg/ml): ◯ (◯: 51~75%); Inhibition rate of cell proliferation after 3 days from medicine addition (%) ([12]; H460, 10 μg/ml): Δ (Δ: 26~50%); Inhibition rate of cell proliferation after 3 days from medicine addition (%) ([12]; H460, 20 μg/ml): Δ (Δ: 26~50%); Inhibition rate of cell proliferation for 1st to 3rd day from medicine addition (%) ([13]; U937, 4 μg/ml, 1st day): −5%; Inhibition rate of cell proliferation for 1st to 3rd day from medicine addition (%) ([13]; U937, 4 μg/ml, 2nd day): −26%; Inhibition rate of cell proliferation for 1st to 3rd day from medicine addition (%) ([13]; U937, 4 μg/ml, 3rd day): 12%; Inhibition rate of cell proliferation for 1st to 3rd day from medicine addition (%) ([13]; U937, 8 μg/ml, 1st day): −1%; Inhibition rate of cell proliferation for 1st to 3rd day from medicine addition (%) ([13]; U937, 8 μg/ml, 2nd day): −5%; Inhibition rate of cell proliferation for 1st to 3rd day from medicine addition (%) ([13]; U937, 8 μg/ml, 3rd day): 37%; Inhibition rate of cell proliferation for 1st to 3rd day from medicine addition (%) ([13]; U937, 16 μg/ml, 1st day): 0%; Inhibition rate of cell proliferation for 1st to 3rd day from medicine addition (%) ([13]; U937, 16 μg/ml, 2nd day): 30%; Inhibition rate of cell proliferation for 1st to 3rd day from medicine addition (%) ([13]; U937, 16 μg/ml, 3rd day): 73%; medicine effect in the cancer cell (U937) ([13]; U937, summary of Table 1 in words): medicine effect was also recognized
NC1CCCC12CCCC2N.O=C1[O][Pt][O]C1=O [R medicine, ((R,R,R)cis,cis-spiro[4,4]nonane-1,6-diamine) oxalatoplatinum(II) complex]	⊚ (⊚: 76~100%)	⊚ (⊚: 76~100%)	◯ (◯: 51~75%)	⊚ (⊚: 76~100%)	⊚ (⊚: 76~100%)	⊚ (⊚: 76~100%)	⊚ (⊚: 76~100%)	⊚ (⊚: 76~100%)	⊚ (⊚: 76~100%)	⊚ (⊚: 76~100%)	◯ (◯: 51~75%)	◯ (◯: 51~75%)	◯ (◯: 51~75%)	◯ (◯: 51~75%)	⊚ (⊚: 76~100%)	⊚ (⊚: 76~100%)	◯ (◯: 51~75%)	◯ (◯: 51~75%)	⊚ (⊚: 76~100%)	⊚ (⊚: 76~100%)	Inhibition rate of cell proliferation after 3 days from medicine addition (%) ([1]; MKN-1, 5 μg/ml): ⊚ (⊚: 76~100%); Inhibition rate of cell proliferation after 3 days from medicine addition (%) ([2]; HT-29, 5 μg/ml): ◯ (◯: 51~75%); Inhibition rate of cell proliferation after 3 days from medicine addition (%) ([3]; HCT116, 5 μg/ml): ◯ (◯: 51~75%); medicine effect for the many tumor cells [14]: high medicine effect compared with the oxaliplatin; also recorded: higher in the effect; Inhibition rate of cell proliferation after 3 days from medicine addition (%) ([4]; LU99, 5 μg/ml): ⊚ (⊚: 76~100%); Inhibition rate of cell proliferation after 3 days from medicine addition (%) ([5]; 5 μg/ml): ⊚ (⊚: 76~100%); Inhibition rate of cell proliferation after 3 days from medicine addition (%) ([6]; H2452, 5 μg/ml): Δ (Δ: 26~50%); Inhibition rate of cell proliferation after 3 days from medicine addition (%) ([7]; A549, 5 μg/ml): Δ (Δ: 26~50%); Inhibition rate of cell proliferation after 3 days from medicine addition (%) ([8]; U937, 5 μg/ml): ⊚ (⊚: 76~100%); Inhibition rate of cell proliferation after 3 days from medicine addition (%) ([9]; 5 μg/ml): Δ (Δ: 26~50%); Inhibition rate of cell proliferation after 3 days from medicine addition (%) ([10]; MKN-45, 5 μg/ml): ⊚ (⊚: 76~100%); Inhibition rate of cell proliferation after 3 days from medicine addition (%) ([11]; 5 μg/ml): ◯ (◯: 51~75%); Inhibition rate of cell proliferation after 3 days from medicine addition (%) ([11]; 10 μg/ml): ⊚ (⊚: 76~100%); Inhibition rate of cell proliferation after 3 days from medicine addition (%) ([11]; 20 μg/ml): ⊚ (⊚: 76~100%); Inhibition rate of cell proliferation after 3 days from medicine addition (%) ([12]; H460, 5 μg/ml): ◯ (◯: 51~75%); Inhibition rate of cell proliferation after 3 days from medicine addition (%) ([12]; H460, 10 μg/ml): ⊚ (⊚: 76~100%); Inhibition rate of cell proliferation after 3 days from medicine addition (%) ([12]; H460, 20 μg/ml): ⊚ (⊚: 76~100%)
